*1 amine or outer side, *2 acyl side, *3 side chain or, on linkers, in order; H or OH if unused. Where a SMILES comes first, the peptide text is derived from it. Side-chain parts run from the residue outwards. [ ]: non-standard residue; d: D form. The star is where a group is joined. C18 diacid = O=C(O)CCCCCCCCCCCCCCCCC(=O)*; γGlu = O=C(O)[C@H](CCC(=O)[*:2])N[*:1]; AEEA = NCCOCCOCC(=O)O; Aib = CC(C)(N)C(=O)O
Columns and labels:
[1] = ThT assay for the assessment of physical stability; assay type: physicochemical; conditions: ThT buffer system A: 100 mM phosphate buffer pH 7.4; 3 mg/ml, 37° C.
From the text: Low physical stability of a peptide solution may lead to amyloid fibril formation, which is observed as well-ordered, thread-like macromolecular structures in the sample, which eventually may lead to gel formation. Thioflavin T (ThT) is widely used to visualize and quantify the presence of misfolded protein aggregates [Biancalana et al., Biochim. Biophys. Acta 2010, 1804(7), 1405]. […] Enzymol. 1999, 309, 274]. The time course for fibril formation often follows the characteristic shape of a sigmoidal curve and can be separated into three regions: a lag phase, a fast growth phase, and a plateau phase.
The typical fibril formation process starts with the lag phase in which the amount of partially folded peptide turned into fibrils is not significant enough to be detected. The lag-time corresponds to the time the critical mass of the nucleus is built. Afterwards, a drastic elongation phase follows, and fibril concentration increases rapidly.
Investigations were carried out to determine fibrillation tendencies under stress conditions by shaking at 37° C. within Fluoroskan Ascent FL or Fluoroskan Ascent.
For the tests in Fluoroskan Ascent (FL), 200 μl sample were placed into a 96-well mictrotiter plate PS, flat bottom, Greiner Fluotrac No. 655076. Plates were sealed with Scotch Tape (Qiagen). Samples were stressed by continuous cycles of 10 sec shaking at 960 rpm and 50 sec rest period at 37° C. The kinetic was monitored by measuring fluorescence intensity every 20 min.
Peptides were diluted in a buffer system to a final concentration of 3 mg/ml. 20 μl of a 10.1 mM ThT solution in H2O were added to 2 ml of peptide solution to receive a final concentration of 100 μM ThT. For each sample eight replicates were tested.
ThT buffer system A) 100 mM phosphate buffer pH 7.4
ThT buffer system B) 100 mM phosphate buffer pH 7.4, 2.7 mg/ml m-cresol
Lag time in hours (h) in Thioflavin T (ThT) assay of peptide samples was determined in ThT buffer system A as described in Methods.

[2] = Pharmacokinetic evaluation in rats; assay type: in vivo; conditions: male, SD, rat, plasma
Description: Compounds were administered in a suitable buffer system, e.g. PBS buffer solution at pH7.4 or DPBS solution at concentrations of 0.05, 0.1, 0.5 or 1 mg/ml depending on dose, species and administration volume.
Male SD rats were dosed 0.25 mg/kg, 0.5 mg/kg or 1 mg/kg intravenously (i.v.) or subcutaneously (s.c.). Blood samples were collected after 0.08, 0.25, 0.5, 1, 2, 4, 8, 24, 32, and 48 h post i.v. application and 0.25, 0.5, 1, 2, 4, 8, 24, 32, and 48 h post s.c. application, respectively. Plasma samples were analyzed after protein precipitation via liquid chromatography mass spectrometry (LC/MS). PK parameters and half-life were calculated using Phoenix-WinNonlin 8.1 using a non-compartmental model and linear trapezoidal interpolation calculation.
Pharmacokinetic profiles were determined as described in Methods.

SMILES: CC[C@H](C)[C@H](NC(=O)[C@H](Cc1ccccc1)NC(=O)[C@H](CCC(=O)O)NC(=O)[C@H](CCC(=O)O)NC(=O)[C@H](CCC(N)=O)NC(=O)[C@H](Cc1c[nH]cn1)NC(=O)[C@@H](NC(=O)[C@H](CCCNC(=N)N)NC(=O)[C@H](CC(=O)O)NC(=O)[C@H](CCCCNC(=O)COCCOCCNC(=O)COCCOCCNC(=O)CC[C@H](NC(=O)CCCCCCCCCCCCCCCCC(=O)O)C(=O)O)NC(=O)C(C)(C)NC(=O)[C@@H](NC(=O)[C@H](CO)NC(=O)[C@H](CC(C)C)NC(=O)[C@H](CC(=O)O)NC(=O)[C@H](CO)NC(=O)[C@@H](NC(=O)[C@H](Cc1ccccc1)NC(=O)[C@@H](NC(=O)CNC(=O)[C@H](CCC(=O)O)NC(=O)C(C)(C)NC(=O)[C@@H](N)Cc1ccc(O)cc1)[C@@H](C)O)[C@@H](C)CC)[C@@H](C)CC)[C@@H](C)CC)C(=O)N[C@@H](CCC(=O)O)C(=O)N[C@@H](Cc1c[nH]c2ccccc12)C(=O)N[C@@H](CC(C)C)C(=O)N[C@@H](CC(C)C)C(=O)N[C@@H](C)C(=O)N[C@@H](CCC(N)=O)C(=O)NCC(=O)N1CCC[C@H]1C(=O)N[C@@H](CO)C(=O)N[C@@H](CO)C(=O)NCC(=O)N[C@@H](C)C(=O)N1CCC[C@H]1C(=O)N1CCC[C@H]1C(=O)N1CCC[C@H]1C(=O)N[C@@H](CO)C(N)=O [SEQ ID NO: 9, H2N-Y-Aib-E-G-T-F-I-S-D-I-S-I-Aib-K[{AEEA}2-gGlu-C18OH]-DRIHQEEFIEWILAQGPSSGAPPPS-NH2] (H-Y[Aib]EGTFISDLSI[Aib]K([AEEA-AEEA-γGlu-C18 diacid])DRIHQEEFIEWLLAQGPSSGAPPPS-NH2)
- Increase in FI [1]: no
- Lag time before increase [1]: >45 h
- AUC(0-t) ([2]; iv, 0.25 mg/kg i.v.): 54500 ng·h/mL
- Cmax ([2]; iv, 0.25 mg/kg i.v.): 5600 ng/mL
- half-life ([2]; iv, 0.25 mg/kg i.v.): 888 min
- clearance ([2]; iv, 0.25 mg/kg i.v., read-out: CI (converted)): 4.19 mL/h/kg
- AUC(0-t) ([2]; sc, 0.5 mg/kg s.c.): 72900 ng·h/mL
- Cmax ([2]; sc, 0.5 mg/kg s.c.): 2490 ng/mL
- bioavailability ([2]; sc, 0.5 mg/kg s.c.): 73%
- half-life ([2]; sc, 0.5 mg/kg s.c.): 1010 min

Source: US20230103631A1, “PEPTIDES AS SELECTIVE GIP RECEPTOR AGONISTS” (Sanofi, priority 2020, published 2023)
